In patent US20230077362A1 (CORTEVA AGRISCIENCE LLC, priority 2019, published 2023):
Where two headings read alike, the source gives them in different places.

Tests used:
[1] = tested on: Cabbage Looper (Trichoplusia ni) ("CL"), second instar larvae; test: Bioassay on cabbage looper (CL), 128-well diet tray assay; type: in vivo; details: for pest or weed control at 50 µg/cm2: Trichoplusia ni; for CL rating: Table ABC, species CL, C = not tested, D = no activity noticed
Procedure: (§1) Certain molecules disclosed in this document were tested against BAW and CL using procedures described in the following examples. In the reporting of the results, the “BAW & CL Rating Table” was used (See Table Section).
(§2) Trays were covered with a clear self-adhesive cover and held at 25° C., 14:10 light-dark cycle for five to seven days. Percent mortality was recorded for the larvae in each well; activity in the eight wells was then averaged. The results are indicated in the table entitled “Table ABC: Biological Results” (See Table Section).

[2] = tested on: Beet Armyworm (Spodoptera exigua) ("BAW"), second instar larvae; test: Bioassay on beet armyworm (BAW), 128-well diet tray assay; type: in vivo; details: for pest or weed control at 50 µg/cm2: Spodoptera exigua; for BAW rating: Table ABC, species BAW, C = not tested, D = no activity noticed
Procedure: as §1, §2

[3] = read-out: CL (Biological Results, rating)
[4] = read-out: BAW (Biological Results, rating)

| Compound | pest or weed control at 50 µg/cm2 [1, 3] [%] | pest or weed control at 50 µg/cm2 [2, 4] [%] | pest or weed control at 50 µg/cm2 ([1]; read-out: CL rating) [%] | pest or weed control at 50 µg/cm2 ([2]; read-out: BAW rating) [%] | also measured |
| --- | --- | --- | --- | --- | --- |
| Cc1cc(-c2ncn(-c3ccc(OC(F)(F)F)cc3)n2)ccc1NC(=O)/N=C1\SCC(=O)N1c1cc(N(C)C)ccc1OCCC(F)(F)F [Compound J102, (Z)-1-(3-(5-(Dimethylamino)-2-(3,3,3-trifluoropropoxy)phenyl)-4-oxothiazolidin-2-ylidene)-3-(2-methyl-4-(1-(4-(trifluoromethoxy)phenyl)-1H-1,2,4-triazol-3-yl)phenyl)urea] | 50 to 100 | 50 to 100 | – | – | – |
| Cc1ccc(C(C)C)c(N2C(=O)CS/C2=N\C(=O)Nc2ccc(-c3ncn(-c4ccc(OC(F)(F)F)cc4)n3)cc2C(F)F)c1 [Compound J211, (Z)-1-(2-(Difluoromethyl)-4-(1-(4-(trifluoromethoxy)phenyl)-1H-1,2,4-triazol-3-yl)phenyl)-3-(3-(2-isopropyl-5-methylphenyl)-4-oxothiazolidin-2-ylidene)urea] | 50 to 100 | 50 to 100 | – | – | – |
| Cc1ccc(COCC(C)(F)F)c(N2C(=O)CS/C2=N\C(=O)Nc2ccc(-c3ncn(-c4ccc(OC(F)(F)F)cc4)n3)cc2F)c1 [Compound J535] | – | – | – | – | CL rating [1]: A (50-100); BAW rating [2]: A (50-100) |
| COCc1ccc(N(C)C)cc1N1C(=O)CS/C1=N\C(=O)Nc1ccc(-c2cn(-c3ccc(S(F)(F)(F)(F)F)cc3)cn2)cc1F [Compound J601, (Z)-1-(3-(5-(Dimethylamino)-2-(methoxymethyl)phenyl)-4-oxothiazolidin-2-ylidene)-3-(2-fluoro-4-(1-(4-(pentafluoro-λ^6-sulfaneyl)phenyl)-1H-imidazol-4-yl)phenyl)urea] | – | – | 50 to 100 | 50 to 100 | – |
| COC(C)c1ccc(C)cc1N1C(=O)CS/C1=N\C(=O)Nc1ccc(-c2noc(-c3ccc(OC(F)(F)F)cc3)n2)cc1F (stereo not drawn) [Compound J426, (Z)-1-(2-Fluoro-4-(5-(4-(trifluoromethoxy)phenyl)-1,2,4-oxadiazol-3-yl)phenyl)-3-(3-(2-(1-methoxyethyl)-5-methylphenyl)-4-oxothiazolidin-2-ylidene)urea] | – | – | 50 to 100 | 50 to 100 | – |
| COC(c1ccc(C)cc1N1C(=O)CS/C1=N\C(=O)Nc1ccc(-c2ncn(-c3ccc([S+]([O-])C(F)(F)F)cc3)n2)cc1F)C(F)(F)F (stereo not drawn) [Compound J386, (Z)-1-(2-Fluoro-4-(1-(4-((trifluoromethyl)sulfinyl)phenyl)-1H-1,2,4-triazol-3-yl)phenyl)-3-(3-(5-methyl-2-(2,2,2-trifluoro-1-methoxyethyl)phenyl)-4-oxothiazolidin-2-ylidene)urea] | – | – | 50 to 100 | 50 to 100 | – |
| COc1ccc(C(C)C)c(N2C(=O)CS/C2=N\C(=O)Nc2ccc(-c3ncn(-c4ccc(C(F)(F)F)cc4)n3)cc2F)c1 [Compound J11, (Z)-1-(2-Fluoro-4-(1-(4-(trifluoromethyl)phenyl)-1H-1,2,4-triazol-3-yl)phenyl)-3-(3-(2-isopropyl-5-methoxyphenyl)-4-oxothiazolidin-2-ylidene)urea] | 50 to 100 | 50 to 100 | – | – | – |
| Cc1ccc(C(F)(F)F)c(N2C(=O)CS/C2=N\C(=O)Nc2ccc(-c3ncn(-c4ccc(OC(F)(F)F)cn4)n3)cc2F)c1 [Compound J271, (Z)-1-(2-Fluoro-4-(1-(5-(trifluoromethoxy)pyridin-2-yl)-1H-1,2,4-triazol-3-yl)phenyl)-3-(3-(5-methyl-2-(trifluoromethyl)phenyl)-4-oxothiazolidin-2-ylidene)urea] | 50 to 100 | 50 to 100 | – | – | – |
| Cc1ccc(OCCC(F)(F)F)c(N2C(=O)CS/C2=N\C(=O)Nc2ccc(-c3ncn(-c4ccc(S(F)(F)(F)(F)F)cc4)n3)cc2C#N)c1 [Compound J584, (Z)-1-(2-Cyano-4-(1-(4-(pentafluoro-λ^6-sulfaneyl)phenyl)-1H-1,2,4-triazol-3-yl)phenyl)-3-(3-(5-methyl-2-(3,3,3-trifluoropropoxy)phenyl)-4-oxothiazolidin-2-ylidene)urea] | – | – | 50 to 100 | 50 to 100 | – |
| COC(C)c1ccc(C)cc1N1C(=O)CS/C1=N\C(=O)Nc1ccc(-c2cn(-c3ccc(S(F)(F)(F)(F)F)cc3)cn2)cc1F (stereo not drawn) [Compound J591, (Z)-1-(2-Fluoro-4-(1-(4-(pentafluoro-λ^6-sulfaneyl)phenyl)-1H-imidazol-4-yl)phenyl)-3-(3-(2-(1-methoxyethyl)-5-methylphenyl)-4-oxothiazolidin-2-ylidene)urea] | – | – | 50 to 100 | 50 to 100 | – |
| Cc1ccc(OCC(F)(F)F)c(N2C(=O)CS/C2=N\C(=O)Nc2ccc(-c3ncn(-c4ccc(OC(F)(F)F)cc4)n3)cc2Cl)c1 [Compound J40, (Z)-1-(2-Chloro-4-(1-(4-(trifluoromethoxy)phenyl)-1H-1,2,4-triazol-3-yl)phenyl)-3-(3-(5-methyl-2-(2,2,2-trifluoroethoxy)phenyl)-4-oxothiazolidin-2-ylidene)urea] | 50 to 100 | 50 to 100 | – | – | – |
| Cc1ccc(OCCC(F)(F)F)c(N2C(=O)CS/C2=N\C(=O)Nc2ccc(-c3ncn(-c4ccc(S(F)(F)(F)(F)F)cc4)n3)cc2F)c1 [Compound J447] | – | – | 50 to 100 | 50 to 100 | – |
| CC(C)c1ccc(N(C)C)cc1N1C(=O)CS/C1=N\C(=O)Nc1ccc(-c2ncn(-c3ccc(S(F)(F)(F)(F)F)cc3)n2)cc1C(F)(F)F [Compound J630, (Z)-1-(3-(5-(Dimethylamino)-2-isopropylphenyl)-4-oxothiazolidin-2-ylidene)-3-(4-(1-(4-(pentafluoro-λ^6-sulfaneyl)phenyl)-1H-1,2,4-triazol-3-yl)-2-(trifluoromethyl)phenyl)urea] | – | – | 50 to 100 | 50 to 100 | – |
| Cc1ccc(COCC(F)(F)F)c(N2C(=O)CS/C2=N\C(=O)Nc2ccc(-c3ncn(-c4ccc(OC(F)(F)C(F)(F)F)cc4)n3)cc2F)c1 [Compound J662] | – | – | – | – | CL rating [1]: A (50-100); BAW rating [2]: A (50-100) |
| Cc1ccc(Cc2cccc(F)c2)c(N2C(=O)CS/C2=N\C(=O)Nc2ccc(-c3ncn(-c4ccc(OC(F)(F)F)cc4)n3)cc2F)c1 [Compound J676, (Z)-1-(2-Fluoro-4-(1-(4-(trifluoromethoxy)phenyl)-1H-1,2,4-triazol-3-yl)phenyl)-3-(3-(2-(3-fluorobenzyl)-5-methylphenyl)-4-oxothiazolidin-2-ylidene)urea] | – | – | 50 to 100 | 50 to 100 | – |
| Cc1ccc(COCC(F)(F)F)c(N2C(=O)CS/C2=N\C(=O)Nc2ccc(-c3nnc(-c4ccc(OC(F)(F)F)cc4)o3)cc2F)c1 [Compound J430, (Z)-1-(2-Fluoro-4-(5-(4-(trifluoromethoxy)phenyl)-1,3,4-oxadiazol-2-yl)phenyl)-3-(3-(5-methyl-2-((2,2,2-trifluoroethoxy)methyl)phenyl)-4-oxothiazolidin-2-ylidene)urea] | – | – | 50 to 100 | 50 to 100 | – |
| Cc1ccc(COCc2nc3ccccc3s2)c(N2C(=O)CS/C2=N\C(=O)Nc2ccc(-c3ncn(-c4ccc(OC(F)(F)F)cc4)n3)cc2F)c1 [Compound J640, (Z)-1-(3-(2-((Benzo[d]thiazol-2-ylmethoxy)methyl)-5-methylphenyl)-4-oxothiazolidin-2-ylidene)-3-(2-fluoro-4-(1-(4-(trifluoromethoxy)phenyl)-1H-1,2,4-triazol-3-yl)phenyl)urea] | – | – | 50 to 100 | 50 to 100 | – |
| COc1ccc(C(C)C)c(N2C(=O)CS/C2=N\C(=O)Nc2ccc(-c3ncn(-c4ccc(OCC(F)(F)F)cc4)n3)cc2F)c1 [Compound J58, (Z)-1-(2-Fluoro-4-(1-(4-(2,2,2-trifluoroethoxy)phenyl)-1H-1,2,4-triazol-3-yl)phenyl)-3-(3-(2-isopropyl-5-methoxyphenyl)-4-oxothiazolidin-2-ylidene)urea] | 50 to 100 | 50 to 100 | – | – | – |
| COc1cc(COCC(F)(F)F)c(N2C(=O)CS/C2=N\C(=O)Nc2ccc(-c3ncn(-c4ccc(S(F)(F)(F)(F)F)cc4)n3)cc2C(F)(F)F)cc1OC [Compound J633, (Z)-1-(3-(4,5-Dimethoxy-2-((2,2,2-trifluoroethoxy)methyl)phenyl)-4-oxothiazolidin-2-ylidene)-3-(4-(1-(4-(pentafluoro-λ^6-sulfaneyl)phenyl)-1H-1,2,4-triazol-3-yl)-2-(trifluoromethyl)phenyl)urea] | – | – | 50 to 100 | 50 to 100 | – |
| COC(C)c1ccc(C)cc1N1C(=O)CS/C1=N\C(=O)Nc1ccc(-c2ncn(-c3ccc(OC(F)(F)F)cc3)n2)cc1C(C)C (stereo not drawn) [Compound J94, (Z)-1-(2-Isopropyl-4-(1-(4-(trifluoromethoxy)phenyl)-1H-1,2,4-triazol-3-yl)phenyl)-3-(3-(2-(1-methoxyethyl)-5-methylphenyl)-4-oxothiazolidin-2-ylidene)urea] | 50 to 100 | 50 to 100 | – | – | – |
| CC(=O)N(C)c1ccc(C(C)C)c(N2C(=O)CS/C2=N\C(=O)Nc2ccc(-c3ncn(-c4ccc(OC(F)(F)F)cc4)n3)cc2F)c1 [Compound J188, (Z)-N-(3-(2-(((2-Fluoro-4-(1-(4-(trifluoromethoxy)phenyl)-1H-1,2,4-triazol-3-yl)phenyl)carbamoyl)imino)-4-oxothiazolidin-3-yl)-4-isopropylphenyl)-N-methylacetamide] | 50 to 100 | 50 to 100 | – | – | – |
